{"source": "patent US11278533B2", "about": "“Animal pest control method” (E.I. DU PONT DE NEMOURS AND COMPANY, priority 2007, dated 2022)"}
{"test_system": "cat flea (Ctenocephalides felis)", "experiment": "Test D: cat flea membrane feeding on treated bovine blood", "assay_type": "in vivo", "conditions": "72 h", "experimental": "For evaluating control of the cat flea (Ctenocephalides felis), a test compound was solubilized in propylene glycol/glycerol formal (60:40) and then diluted in bovine blood to a final test rate of 30 ppm. The treated blood was placed in a tube, and the bottom of the tube was covered with a membrane. Approximately 10 adult cat fleas were allowed to feed through the membrane on the treated blood. The adult fleas were then evaluated for mortality 72 hours later.", "units": {"mortality at 30 ppm": "%"}}
{"smiles": "Cc1cc(C2=NOC(c3cc(Cl)cc(Cl)c3)(C(F)(F)F)C2)ccc1C(=O)NCc1ccccn1", "note": "(centres unmarked) [Compound 1, 4-[5-(3,5-dichlorophenyl)-4,5-dihydro-5-(trifluoromethyl)-3-isoxazolyl]-2-methyl-N-(2-pyridinylmethyl)benzamide]", "mortality at 30 ppm": "≥ 50"}
{"smiles": "CSCCNC(=O)c1ccc(C2=NOC(c3cc(Cl)cc(Cl)c3)(C(F)(F)F)C2)cc1C", "note": "(centres unmarked) [Compound 2, 4-[5-(3,5-dichlorophenyl)-4,5-dihydro-5-(trifluoromethyl)-3-isoxazolyl]-2-methyl-N-[2-(methylthio)ethyl]benzamide]", "mortality at 30 ppm": "≥ 50"}
{"smiles": "Cc1cc(C2=NOC(c3cc(Cl)cc(Cl)c3)(C(F)(F)F)C2)ccc1C(=O)NCC(=O)NCC(F)(F)F", "note": "(centres unmarked) [Compound 3, 4-[5-(3,5-dichlorophenyl)-4,5-dihydro-5-(trifluoromethyl)-3-isoxazolyl]-2-methyl-N-[2-oxo-2-[(2,2,2-trifluoroethyl)amino]ethyl]benzamide]", "mortality at 30 ppm": "≥ 50"}
{"smiles": "Cc1cc(C2=NOC(c3cc(Cl)cc(Cl)c3)(C(F)(F)F)C2)ccc1C(=O)NCC[S+](C)[O-]", "note": "(centres unmarked) [Compound 5, 4-[5-(3,5-dichlorophenyl)-4,5-dihydro-5-(trifluoromethyl)-3-isoxazolyl]-2-methyl-N-[2-(methylsulfinyl)ethyl]benzamide]", "mortality at 30 ppm": "≥ 50"}
{"smiles": "Cc1cc(C2=NOC(c3cc(Cl)cc(Cl)c3)(C(F)(F)F)C2)ccc1C(=O)NCCS(C)(=O)=O", "note": "(centres unmarked) [Compound 6, 4-[5-(3,5-dichlorophenyl)-4,5-dihydro-5-(trifluoromethyl)-3-isoxazolyl]-2-methyl-N-[2-(methylsulfonyl)ethyl]benzamide]", "mortality at 30 ppm": "≥ 50"}
